Measurements published in patent publication US12404249B2, “Heterocyclic derivatives and use thereof” (C&C RESEARCH LABORATORIES, priority 2018, dated 2025).

How the values were obtained:
STAT3 = target: T1, STAT3 (Homo sapiens, UniProt P40763); experiment: STAT3 activation inhibition assay (reporter gene assay, LNcaP stable cell line, IL-6 stimulated); assay type: cell-based; conditions: LNcaP stable cell line [plasmid STAT3-TA-luc], IL-6 10 ng/mL, 48 hours, luciferase activity; read-out: IC50 (μM) pSTAT3
T1 construct: endogenous in cells; host or cells: LNCaP (human prostate cancer) stably carrying pSTAT3-TA-luc reporter plasmid
T1 sequence (P40763 whole entry): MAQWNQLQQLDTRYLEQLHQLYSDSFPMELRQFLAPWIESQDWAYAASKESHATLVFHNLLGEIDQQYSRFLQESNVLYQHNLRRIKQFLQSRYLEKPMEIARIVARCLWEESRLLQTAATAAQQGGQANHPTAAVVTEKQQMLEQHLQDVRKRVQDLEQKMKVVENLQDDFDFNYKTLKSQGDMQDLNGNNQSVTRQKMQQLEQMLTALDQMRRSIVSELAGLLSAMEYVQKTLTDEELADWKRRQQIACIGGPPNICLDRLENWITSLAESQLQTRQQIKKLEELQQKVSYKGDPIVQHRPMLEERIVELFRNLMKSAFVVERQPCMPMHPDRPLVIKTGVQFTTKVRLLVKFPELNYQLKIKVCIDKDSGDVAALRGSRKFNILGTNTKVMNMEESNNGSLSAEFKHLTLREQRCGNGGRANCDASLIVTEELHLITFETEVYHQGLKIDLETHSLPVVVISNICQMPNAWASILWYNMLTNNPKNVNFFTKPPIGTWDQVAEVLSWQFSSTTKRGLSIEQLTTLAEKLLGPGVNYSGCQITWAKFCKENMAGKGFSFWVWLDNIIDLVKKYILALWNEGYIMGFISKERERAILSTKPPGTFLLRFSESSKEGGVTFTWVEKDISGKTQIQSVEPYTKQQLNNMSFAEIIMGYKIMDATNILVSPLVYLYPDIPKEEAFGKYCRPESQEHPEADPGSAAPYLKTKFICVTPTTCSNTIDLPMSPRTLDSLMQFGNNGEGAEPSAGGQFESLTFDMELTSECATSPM
Procedure: Cancer cell lines used for evaluating the compounds of the Examples were purchased from ATCC (American Type Culture Collection) or KCLB (Korean Cell Line Bank), and cultured according to the vendor's recommendation. The human prostate cancer cell line stably expressing the STAT3 promoter (LNcaP stable cell line [plasmid STAT3-TA-luc])—which was prepared to evaluate the inhibitory effect of the compounds of the Examples against dimerization of STAT3—was cultured in RPMI1640 (Cat no. 11875, Gibco), 10% fetal bovine serum (Cat no. SH30071.03, Hyclone) and 150 μg/mL G418 solution (Cat no. 04 727 894 001, Roche).
The reporter gene assay of LNcap stable cell line was carried out by the use of RPMI 1640 medium containing 3% DCC-FBS (without G-418). The cell line was dispensed into two (2) white 96-well plates at 30,000 cells/well/50 μL. The cell line was incubated for 24 hours under the condition of 37° C. and 5% CO2, and then the Example compounds of 50 mM DMSO stock were diluted to various concentrations and treated to two (2) white 96-well plates containing cells. Then, IL-6 was treated to a final concentration of 10 ng/mL. After the treatment of Example compounds and IL-6, the cells were cultured for 48 hours under the condition of 37° C. and 5% CO2. After 48 hours, the 96-well plates were observed under a microscope to record the presence or absence of drug precipitation and specificities, and the 96-well plates were kept at room temperature for 30 minutes. Then, in the case of the first 96-well plate, the culture medium on the plate was removed to measure the luciferase activity, and treated with passive lysis buffer at 20 µL/well and shaken for 30 minutes. The luciferase activity was measured on microLUMA LB96P (BERTHOLD) or Centro XS LB 960 (BERTHOLD) instrument using Luciferase assay system (Cat No. E1501, Promega Corporation). In the case of the second 96-well plate, 20 μL of Glo-mix solution was added to measure cytotoxicity by the compounds of the Examples, and the plate was well shaken for 10 minutes and analyzed on microLUMA LB96P (BERTHOLD) instrument using Glo-vial protocol. As a negative control, a 96 well-plate in which culture medium was added but cells were not plated was used. As a positive control, a 96 well-plate in which cells were plated and 0.1% DMSO and culture medium containing stimulation were added was used.
The results of evaluating the inhibitory effects of the compounds of the Examples against dimerization of STAT3 and STAT1 via STAT3 and STAT1 reporter gene assay are represented in Table 1.

[1] = tested on: prostate cancer cell line (LNCap); experiment: Cell growth inhibition assay (Celltiter Glo); assay type: cell-based; conditions: Homo sapiens, LNCap cells, 120 hours incubation
Procedure: Cancer cell inhibitory effects by the compounds of the Examples were evaluated as follows. The prostate cancer cell line (LNCap) used was cultured under the condition according to the vendor's recommendation. LNCap was dispensed into a 96-well plate at 10,000 cells/well. After incubation under the condition of 37° C. and 5% CO2 for 24 hours, the Example compounds of 50 mM DMSO stock were diluted to various concentrations and treated to the 96-well plate containing cells. After treatment of the Example compounds, LNCap cells were incubated in an incubator (37° C., 5% CO2) for 120 hours. After each incubation time, the 96-well plate was observed under a microscope to record the presence or absence of drug precipitation and specificities, and the 96-well plate was kept at room temperature for 30 minutes. Then, after addition of 20 μL of Celltiter Glo solution, the 96-well plate was well shaken for 30 minutes. The growth inhibitory activity was measured on microLUMA LB96P (BERTHOLD) instrument using Glo-vial protocol. As a negative control, a 96 well-plate in which culture medium was added but cells were not plated was used. As a positive control, a 96 well-plate in which cells were plated and 0.1% DMSO instead of drugs was added was used. The results of growth inhibitory effects of the Example compounds on prostate cancer cell line are represented in Table 2.

Row | Compound | IC50 (STAT3) | IC50 [1]
1 | CS(=O)(=O)Nc1ccc(CCNc2cc(Cl)nc3cc(OC(F)(F)F)ccc23)cc1 [Example 24, N-(4-(2-((2-chloro-7-(trifluoromethoxy)quinolin-4-yl)amino)ethyl)phenyl)methanesulfonamide] | 4.1 µM | 6.2 µM
2 | CS(=O)(=O)Nc1ccc(CCNc2ccnc3cccc(OC(F)(F)F)c23)cc1 [Example 27, N-(4-(2-((5-(trifluoromethoxy)quinolin-4-yl)amino)ethyl)phenyl)methanesulfonamide] | 0.14 µM | 0.14 µM
3 | O=[N+]([O-])c1ccc(CCNc2cc(Cl)nc3cccc(OC(F)(F)F)c23)cc1 [Example 13, 2-chloro-N-(4-nitrophenethyl)-5-(trifluoromethoxy)quinolin-4-amine] | 3.1 µM | 2.5 µM
4 | O=C(O)COc1ccc2nc(Cl)cc(NCCc3ccc([N+](=O)[O-])cc3)c2c1 [Example 43, 2-((2-chloro-4-((4-nitrophenethyl)amino)quinolin-6-yl)oxy)acetic acid] | > 50 µM | > 50 µM
5 | O=[N+]([O-])c1ccc(CCNc2cc(Cl)nc3c(F)cccc23)cc1 [Example 31, 2-chloro-8-fluoro-N-(4-nitrophenethyl)quinolin-4-amine] | 0.12 µM | 0.21 µM
6 | CS(=O)(=O)Nc1ccc(CCNc2ccnc3cc(OC(F)(F)F)ccc23)cc1 [Example 25, N-(4-(2-((7-(trifluoromethoxy)quinolin-4-yl)amino)ethyl)phenyl)methanesulfonamide] | 1.9 µM | 9.6 µM
7 | O=[N+]([O-])c1ccc(CCNc2cc(Cl)nc3ccc(S(=O)(=O)NCCc4ccc([N+](=O)[O-])cc4)cc23)cc1 [Example 19, 2-chloro-N-(4-nitrophenethyl)-4-((4-nitrophenethyl)amino)quinolin-6-sulfonamide] | > 50 µM | 18.4 µM
8 | CS(=O)(=O)Nc1ccc(CCNc2cc(Cl)nc3ccc(F)cc23)cc1 [Example 22, N-(4-(2-((2-chloro-6-fluoroquinolin-4-yl)amino)ethyl)phenyl)methanesulfonamide] | 0.1 µM | 0.074 µM
9 | O=[N+]([O-])c1ccc(CCNc2nc(C(F)(F)F)nc3ccccc23)cc1 [Example 48, N-(4-nitrophenethyl)-2-(trifluoromethyl)quinazolin-4-amine] | 7.3 µM | 14.2 µM
10 | O=[N+]([O-])c1ccc(CCNc2nc(F)nc3[nH]cnc23)cc1 [Example 50, 2-fluoro-N-(4-nitrophenethyl)-9H-purin-6-amine] | 13.9 µM | 23.1 µM
11 | Cc1cccc2c(NCCc3ccc([N+](=O)[O-])cc3)cc(Cl)nc12 [Example 15, 2-chloro-8-methyl-N-(4-nitrophenethyl)quinolin-4-amine] | 3.1 µM | 1.6 µM
12 | CS(=O)(=O)Nc1ccc(CCNc2ccnc3ccc(F)cc23)cc1 [Example 21, N-(4-(2-((6-fluoroquinolin-4-yl)amino)ethyl)phenyl)methanesulfonamide] | 2.3 µM | 2.4 µM
13 | O=[N+]([O-])c1ccc(CCNc2cc(Cl)nc3ccc(Oc4ccccc4)cc23)cc1 [Example 33, 2-chloro-N-(4-nitrophenethyl)-6-phenoxyquinolin-4-amine] | 6 µM | > 50 µM
14 | O=[N+]([O-])c1ccc(CCNc2cc(Cl)nc3ccc(F)cc23)cc1 [Example 14, 2-chloro-6-fluoro-N-(4-nitrophenethyl)quinolin-4-amine] | 0.59 µM | 1.9 µM
15 | COc1cccc2c(NCCc3ccc([N+](=O)[O-])cc3)cc(Cl)nc12 [Example 10, 2-chloro-8-methoxy-N-(4-nitrophenethyl)quinolin-4-amine] | 3.9 µM | 2.6 µM
16 | O=[N+]([O-])c1ccc(CCNc2nc(Cl)nc3[nH]cnc23)cc1 [Example 47, 2-chloro-N-(4-nitrophenethyl)-9H-purin-6-amine] | > 50 µM | > 50 µM
17 | CCOC(=O)c1ccc2nc(Cl)cc(NCCc3ccc([N+](=O)[O-])cc3)c2c1 [Example 16, ethyl 2-chloro-4-((4-nitrophenethyl)amino)quinolin-6-carboxylate] | > 50 µM | 21.8 µM
18 | CS(=O)(=O)Nc1ccc(CCNc2cc(Cl)nc3ccccc23)cc1 [Example 7, N-(4-(2-((2-chloroquinolin-4-yl)amino)ethyl)phenyl)methanesulfonamide] | 0.038 µM | 0.078 µM
19 | CS(=O)(=O)N(O)c1ccc(CCNc2cc(Cl)nc3ccccc23)cc1 [Example 2, N-(4-(2-((2-chloroquinolin-4-yl)amino)ethyl)phenyl)-N-hydroxymethanesulfonamide] | 0.85 µM | 0.81 µM
20 | O=C(O)c1ccc2nc(Cl)cc(NCCc3ccc([N+](=O)[O-])cc3)c2c1 [Example 40, 2-chloro-4-((4-nitrophenethyl)amino)quinolin-6-carboxylic acid] | > 50 µM | > 50 µM

Now from value to compound:

Row | IC50 (STAT3) | IC50 [1] | Compound
21 | 6.6 µM | 13.9 µM | CS(=O)(=O)Nc1ccc(CCNc2ncnc3ccc(-c4ccc(Cl)cc4Cl)cc23)cc1 [Example 56, N-(4-(2-((6-(2,4-dichlorophenyl)quinazolin-4-yl)amino)ethyl)phenyl)methanesulfonamide]
22 | 9.6 µM | 20.9 µM | CS(=O)(=O)Nc1ccc(CCNc2nccc3nccnc23)cc1 [Example 71, N-(4-(2-(pyrido[3,4-b]pyrazin-5-ylamino)ethyl)phenyl)methanesulfonamide]
23 | 3 µM | 15.7 µM | CS(=O)(=O)Nc1ccc(CCNc2nc(C(F)(F)F)nc3ccccc23)cc1 [Example 53, N-(4-(2-((2-(trifluoromethyl)quinazolin-4-yl)amino)ethyl)phenyl)methanesulfonamide]
24 | 0.063 µM | 0.23 µM | CS(=O)(=O)Nc1ccc(CCNc2ncnc3ccc(F)cc23)cc1 [Example 64, N-(4-(2-((6-fluoroquinazolin-4-yl)amino)ethyl)phenyl)methanesulfonamide]
25 | 3.1 µM | 6.6 µM | CS(=O)(=O)Nc1ccc(CCNc2cc(C(F)(F)F)nc3ccccc23)cc1 [Example 52, N-(4-(2-((2-(trifluoromethyl)quinolin-4-yl)amino)ethyl)phenyl)methanesulfonamide]
26 | 0.053 µM | 0.19 µM | O=[N+]([O-])c1ccc(CCNc2ncnc3ccc(F)cc23)cc1 [Example 61, 6-fluoro-N-(4-nitrophenethyl)quinazolin-4-amine]
27 | 4.4 µM | 3.7 µM | O=[N+]([O-])c1ccc(CCNc2nc(Cl)nc3ncccc23)cc1 [Example 67, 2-chloro-N-(4-nitrophenethyl)pyrido[2,3-d]pyrimidin-4-amine]
28 | 0.046 µM | 0.13 µM | CS(=O)(=O)Nc1ccc(CCNc2ncnc3scnc23)cc1 [Example 69, N-(4-(2-(thiazolo[5,4-d]pyrimidin-7-ylamino)ethyl)phenyl)methanesulfonamide]
29 | 3.8 µM | 10.8 µM | CS(=O)(=O)Nc1ccc(CCNc2ncnc3[nH]ccc23)cc1 [Example 70, N-(4-(2-((7H-pyrrolo[2,3-d]pyrimidin-4-yl)amino)ethyl)phenyl)methanesulfonamide]
30 | 0.62 µM | 1.4 µM | Cc1cnc2ccccc2c1NCCc1ccc(NS(C)(=O)=O)cc1 [Example 72, N-(4-(2-((3-methylquinolin-4-yl)amino)ethyl)phenyl)methanesulfonamide]
